Source: patent US20130023504A1, “Modulation of Prostaglandin/Cyclooxygenase Metabolic Pathways” (HUNTER-FLEMING LIMITED, priority 2006, published 2013)
Marks after values point to notes of the source that are not given here.

System: rats with DSS-induced colitis
Assay: DSS-induced colitis in rats, 7-day i.p. pre-treatment
Format: in vivo, rat
Conditions: for Body weight: DSS (5%) day 7-14
Description: All experimental protocols and procedures were in agreement with the directive 86/609/CEE of the European Community, for the use of laboratory animals. Male Wistar rats (180-200 g), purchased from Charles River (L'Arbresle, France) were fed with rodent laboratory chow and were given water ad libitum.
After a 7-day adaptation period, animals were divided into two control groups (sham-control and 7β-hydroxy-EPIA-treated control group and two colitis groups (colitis and 7β-hydroxy-EPIA-treated colitis). 7β-Hydroxy-EPIA (0.01, 0.1, and 1 mg/kg body weight dissolved in DMSO) or DMSO alone (vehicle) was administered i.p. once a day for 7 days, from day 0 to day 7. Colitis was induced from day 7 to 14 by addition of DSS (molecular weight 36-50 kDa; MP Biomedicals, France) to drinking water. The two control groups received tap water only.
At day 9, 11, 13, 14, body weight, colon length, stool consistency, were recorded and fresh rectal bleeding evaluated by ocular inspection. The severity of colonic damage was blindly scored as described by Mabley et al., 2001, Inflamm. Res.; 50: 561-569) (0: well-formed pellets and no colon damage; 1: colon with a small amount of blood present mixed with feces; 2: colon with large amount of blood present with faeces; 3: colon filled with blood and no faeces).
A portion of the proximal colon (1 cm) was fixed in 4% formaldehyde (Labonord, Templemars, France) and embedded in paraffin. Tissue sections (5 μm) were prepared, thereafter cleared, hydrated and stained either with hematoxylin/eosin or with Alcian blue according to standard protocols for histological evaluation of colonic damage and mucus goblet cells content, respectively.
The colon was opened along the mesenteric border, and the epithelial cells were scrapped away with the blunt edge of a glass slide then weighed, washed and centrifuged. The pellet was homogenized in 9 volumes TKE buffer (10 mM Tris-HCl; 150 mM KCl; 1 mM EDTA; 0.25 mM PMSF, pH 7.4) and then frozen at −80° C. until further use. The protein content of homogenates were measured according to Lowry et al. (J Biol Chem 1951; 193: 265-74).
MPO activity was assessed in homogenates using the o-dianisidine method of Krawisz et al. (Gastroenterology 1984; 87(6):1344-50) with the modifications of Pelissier et al. (Steroids 2006; 71(3):240-8). MPO activity was expressed as the amount of enzyme necessary to produce a per minute change in absorbance at 460 nm using the extinction coefficient for oxidized o-dianisidine (1.13×10^4 mol^−1.cm^−1).
Lipid peroxidation (Tbars) was measured by a modification by Albrecht et al., (1992, Toxicol. Lett; 63: 91-96) of the method described by Ohkawa et al. (Anal Biochem 1979; 95:315-58). Absorbance of the red 1:2 adduct malondialdehyde-thiobarbituric acid (Sigma-Aldrich, St Quentin-Fallavier, France) was measured at 532 nm (extinction coefficient used: 0.156 μmol^−1 cm^−1). The carbonyl contents in oxidized proteins (Prot CO) were assessed by the method of Levine et al. (Methods Enzymol 1990; 186:464-78). The non-protein sulfhydryl group content (mostly GSH) was taken as the anti-oxidant defense marker in homogenates and determined by the method of Sedlak and Lindsay (Anal Biochem 1968; 25(1):192-205).
Commercially available EIA kits were used for the determination of PGE2 levels (Oxford Biomedical Research, UK) and 15d-PGJ2 levels (Assay designs, Euromedex, France) in colonic supernatants obtained from fresh homogenates. Measurement of PGD2 levels was obtained using the prostaglandin D2-MOX EIA kit (Cayman Chemical, Euromedex). In this case, and prior to assay, the fresh samples were immediately treated with the MOX-HCl reagent which converted PGD2 into PGD2-MOX, thus preventing any further chemical degradation.
Total RNA from fresh colonic samples (300 mg) was extracted using Trizol Reagent (Invitrogen, Cergy-Pontoise, France). […]

For `CC12CCC3C(C1CCC2=O)[C@@H](O)C[C@H]1C[C@@H](O)CCC31C` (stereo partly drawn) [Compound 7β-OH-EPIA, 7β-hydroxy-EPIAndrosterone], the “colitis damage and tissue inflammation” value (0.01 mg/kg) was “completely prevented”, the Body weight (0.01 mg/kg body weight i.p. day 0-7, day 14) was 297.5 ± 9.5^a g and the “DSS-induced production of colonic PGE2” value (0.01 mg/kg from D0 to D7) was “completely prevented”. For the same compound, the “colonic level of 15d-PGJ2” value (0.01 mg/kg from D0 to D7, DSS) was “dramatically increasing”, the Colon length (0.01 mg/kg, day 14) was 16 ± 0.01^c cm and the Epididymis weight (0.01 mg/kg, day 14) was 2.5 ± 0.03^a g. For the same compound, the Liver weight (0.01 mg/kg, day 14) was 12.1 ± 0.3^a g, the Spleen weight (0.01 mg/kg, day 14) was 0.8 ± 0.02^a g and the Body weight (0.1 mg/kg body weight i.p. day 0-7, day 14) was 272.1 ± 6^b g. The Colon length (0.1 mg/kg, day 14) was 15.6 ± 0.3^c cm, the Epididymis weight (0.1 mg/kg, day 14) was 1.9 ± 0.14^b g and the Liver weight (0.1 mg/kg, day 14) was 12.3 ± 0.6^a g. The Spleen weight (0.1 mg/kg, day 14) was 1.03 ± 0.2^a g, the Body weight (1 mg/kg body weight i.p. day 0-7, day 14) was 267.3 ± 7.7^b g and the Colon length (1 mg/kg, day 14) was 14.2 ± 0.6^b cm. The Epididymis weight (1 mg/kg, day 14) was 1.9 ± 0.1^b g, the Liver weight (1 mg/kg, day 14) was 11.9 ± 0.4^a g and the Spleen weight (1 mg/kg, day 14) was 0.82 ± 0.06^a g. The “diarrhea and rectal bleeding” value (0.01, 0.1 mg/kg, day 14) was “suppression”, the “MPO activity in colonic mucosa” value (all dose levels, 0.01, 0.1 and 1 mg/kg, vs colitis group) was “significantly decreased” and the “oxidative stress parameters (Prot CO, Tbars, GSH) in colonic tissue” value (day 13 and 14, all dose levels) was “restored”. The “increase in COX-2 and mPGES-1 mRNA synthesis by DSS” value (pre-treatment day 0 to day 7) was “suppressed”.
